According to US20200164026A1, “Intranasal Delivery of Cell Permeant Therapeutics” (The Trustees of Columbia University in the City of New York, priority 2010, published 2020):

Key:
rats subjected to tMCAo = assay: Intranasal Pen1-XBIR3 prior to tMCAo in rats; immunohistochemistry counts of neurons and processes in the penumbra; assay type: in vivo, rat
Description: Brains were analyzed for expression of activated caspase-6, NF-L, MAP-2, and NeuN at 12 hpr and 24 hpr. […] Therefore, caspase-9 inhibition using this delivery technique reduced caspase-6 activity. […] (Coleman, M., Nat Rev Neurosci 6 (11), 889-898 (2005)). […] Unlike axon density, dendrite levels are unaffected at 12 and 24 hpr (FIG. 4D), which can indicate a slower time-course for dendritic degeneration or a different mechanism of degeneration.
Mouse & Rat Stroke Models. Caspase-6 null (C6^−/−) mice (Jackson Laboratories)^48,49 on C57/B16 background were bred with wild-type C57/B16 mice to generate C6^+/− heterozygotes, hets were bred to generate C6^−/− and wild-type littermates for studies. 2-3 month old male C6^−/− and wild-type littermate mice (23-30 g) as well as adult Wistar male rats 250-300 g (Taconic Laboratories) were subjected to transient middle cerebral artery occlusion (tMCAo) as previously published. (Connolly, et al., Neurosurgery 38 (3), 523-531; discussion 532 (1996); Komotar, et al., Nat Protoc 2 (10), 2345-2347 (2007)). Brains were harvested and processed for western blotting or immunohistochemistry as described below. For mouse neurofunctional analysis, a 28 point neurological functional exam was performed as previously described. (Clark, et al., Neurol Res 19 (6), 641-648 (1997)). Additionally, single mice were placed in a fresh cage at each time point (Pre-stroke, 24 hr reperfusion, 7 days reperfusion) short videos (3 min at each time point) were recorded of each mouse's representative spontaneous activity to illustrate motor deficits in the mouse stroke model.
(§1) Intranasal Delivery of Pen1-XBIR3. While under isofluorane anesthesia and lying on their backs, Pen1-XBIR3 (36.8 μM) was delivered to rats by administering 6 μl drops to alternating nares every two minutes for 20 minutes (60 μl total delivered). (Thorne, et al., Neuroscience 127 (2), 481-496 (2004)). Intranasal treatment was done prior to induction of stroke. Saline was used as a negative control. Brains were harvested for immunohistochemistry or western blotting.
Immunohistochemistry (IHC), Cell Process Quantification, and Statistical Analysis. Rats and mice were euthanized, perfused with heparin followed by fixation with 4% paraform-aldehyde. Sections were blocked for 1 hr with 10% normal goat serum/1% BSA, incubated with primary antibody overnight at 4° C., washed with PBS-Triton-X100 (0.1%), incubated with the species appropriate Alexa Fluor-conjugated secondary antibody (Invitrogen) for 2 hr at RT. Slides were also stained with Hoechst 33342 for 15 min at RT (1 μg/ml, Invitrogen) or with NeuroTrace fluorescent Nissl stain (1:300, Invitrogen) for 30 min to stain for nuclei. Human samples were additionally treated with Sudan Black (1% in 70% EtOH) for 5 min at RT and washed with 3 changes of PBS (3 min each). For detection of fluorescent staining, sections were imaged with an upright Nikon fluorescent microscope using a SPOT digital camera and with a Perkin-Elmer Spinning Disc Confocal Imaging System. Quantification of neurons and axons was accomplished using the Cell Counter plug-in for ImageJ (NIH). For quantification in the rat brain, 20x magnification images were acquired from the dorsal motor cortex and the […] somatosensory cortex forelimb region; both regions are contained are within the infarct penumbra (FIG. 1A). Single blind counts of processes or neurons were made in both regions of interest and then pooled for each individual animal. Three animals were used per cohort. For mouse brains, 20× magnification images were taken in the S1 somato-sensory cortex forelimb region and similar counts were made as described below. Counts were made for NF-L/MAP-2 positive processes and NeuN positive cell bodies. Comparisons between groups used the student's t test, p-value: 0.05.

[1] = Intranasal delivery of Pen1-XBIR3 to rat CNS; western blot (anti-HIS) of coronal brain slices; assay type: in vivo; settings: intranasal 60 μl, 1 hr after delivery
Description: The following experiment was performed to ascertain if the Pen1-XBIR3 could also bypass the blood brain barrier via another delivery technique. […] (Dhuria, et al., J Pharm Sci 99 (4), 1654-1673 (2010); Liu, et al., J Stroke Cerebrovasc Dis 13 (1), 16-23 (2004); Liu, et al., J Neurol Sci 187 (1-2), 91-97 (2001)). This delivery method takes advantage of the olfactory pathway to bypass the blood brain barrier, however until now, proteins and compounds delivered via this method in rodent models have targeted extracellular targets, such as cell surface receptors. Since caspases, which are intracellular proteins, are targeted in this experiment, the cargo needed to be delivered intracellularly. […] Pent-XBIR3 was delivered intranasally to rats, after which brains were sliced coronally, and the presence of XBIR3 in the CNS determined by western blotting (FIG. 4A).
as §1

Pen1-XBIR3: BIR3 domain from XIAP, a specific caspase-9 inhibitor, disulfide-linked to Penetratin1 cell transduction peptide (SEQ ID NO: 10)
MAP-2 positive processes (dendrites) (rats subjected to tMCAo; 12 hpr, n=3): 162.0±19.22
NF-L positive axons (rats subjected to tMCAo; 12 hpr, n=3): 179.7±14.89
NeuN positive cells (rats subjected to tMCAo; 12 hpr, n=3): 477.3±28.95
MAP-2 positive processes (dendrites) (rats subjected to tMCAo; 24 hpr, n=3): 138.3±6.766
NeuN positive cells (rats subjected to tMCAo; 24 hpr, n=3): 453.7±25.44
NeuN positive cells (rats subjected to tMCAo; 24 hpr, n=3, listed as Pent-XBIR3): significant protection against neuron loss
presence of XBIR3 in brain slices (anterior to posterior) [1]: delivered to all slices of the brain
presence of XBIR3 in brain slices (anterior to posterior) ([1]; listed as Pent-XBIR3): throughout the rat CNS
